Patent publication EP2676962A1, “Derivatives of 1-aminoalkylphosphonate diaryl esters, method of 1-aminoalkylphosphonate diaryl ester derivatives preparation and their application” (priority 2012, dated 2013)
Like-named read-outs stand apart in the source and are kept apart here.

Experiments:
Assay type in all cases: biochemical
proteinase 3 (PR3) = molecular target: T1, proteinase 3 (PR3) (Homo sapiens, UniProt P24158); assay: Inhibitory activity toward proteinase 3, fluorogenic substrate, microplate reader
T1 sequence (P24158 28-248): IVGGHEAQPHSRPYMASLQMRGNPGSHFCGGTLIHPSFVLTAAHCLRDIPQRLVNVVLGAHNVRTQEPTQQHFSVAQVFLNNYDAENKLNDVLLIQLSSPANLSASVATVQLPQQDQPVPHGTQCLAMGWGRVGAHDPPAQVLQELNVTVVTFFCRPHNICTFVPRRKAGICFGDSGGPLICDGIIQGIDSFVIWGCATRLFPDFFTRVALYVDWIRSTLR
Protocol: (§1) The biological activity of peptidyl derivatives of phosphonic analogs of valine, alanine, phenylalanine, 4-guanidinephenylglycine, leucine, and 1-aminobutyric acid, containing the N-terminal biotin residue were tested for their ability to inhibit proteolytic activity of selected serine proteases, and the control cysteine proteases. All tests were performed using a microplate reader. As enzyme substrates fluorescent peptides were used. The method to measure the activity of the compounds obtained are described below for each of the enzymes tested: human neutrophil elastase (HNE), porcine pancreatic elastase (PPE), subtilisin (Sub), cathepsin G (CatG), proteinase 3 (PR3), chymotrypsin (ChTry) trypsin (Try), papain (Pap) and cathepsin L (CatL). Measurement of the inhibitory activity was performed at different inhibitor concentrations ranging from 12.5 nM to 2000nm.
Measurement of inhibitory activity of compounds toward proteinase 3(PR3).
(§2) The inhibitory activity assay is performed at 37°C in 0,1M Tric-HCl, 0,5M NaCl buffer, pH 7,5, within 10 min after initial pre-incubation of the enzyme with inhibitor tested at 37°C for 10 min. The enzyme concentration is 17nM. Substrate used Abz-Tyr-Tyr-Abu-Anb-NH2 at 30µM. Measurement is taken at an excitation wavelength of 325nm and 400nm emission.
(§3) The IC50 value is the concentration of inhibitor required to inhibit half of the enzyme activity after 10 minutes incubation.

subtilisin (Sub) [1] = molecular target: T2, subtilisin (Sub) (Bacillus licheniformis, UniProt P00780); assay: Inhibitory activity toward subtilisin, fluorogenic substrate, microplate reader
Protocol: as §1
Measurement of inhibitory activity of compounds toward subtilisin (Sub).
(§4) The inhibitory activity assay is performed at 37°C in 0,05M Tris-HCl, 1M NaCl, 0,01% Triton X-100 buffer, pH 7,5, within 10 min after initial pre-incubation of the enzyme with inhibitor tested at 37°C for 10 min. The enzyme concentration is 5nM. Substrate used Me-Suc-Ala-Ala-Pro-Phe-AMC at 5µM. Measurement is taken at an excitation wavelength of 350nm and 460nm emission.
as §3

[2] = molecular target: porcine pancreatic elastase (PPE) (Sus scrofa, UniProt P00772); assay: Inhibitory activity toward porcine pancreatic elastase, fluorogenic substrate, microplate reader
Protocol: as §1
Measurement of inhibitory activity of compounds toward porcine pancreatic elastase (PPE).
as §4, with “0,01M” for “0,05M”, “0,05%” for “1M NaCl, 0,01%”, “8,5,” for “7,5,”, “60nM.” for “5nM.”, “Me-Suc-Ala-Ala-Pro-Val-AMC” for “Me-Suc-Ala-Ala-Pro-Phe-AMC”, “100µM.” for “5µM.”
as §3

subtilisin (Sub) [3] = molecular target: T2, subtilisin (Sub); assay: Inhibitory activity toward subtilisin, fluorogenic substrate, microplate reader; settings: 10 min, pH 7.5, read-out: Sub Kobs/[I]
[4] = molecular target: T3, human neutrophil elastase (HNE) (Homo sapiens, UniProt P08246); assay: Inhibitory activity toward human neutrophil elastase, fluorogenic substrate, microplate reader
T3 sequence (P08246 30-267): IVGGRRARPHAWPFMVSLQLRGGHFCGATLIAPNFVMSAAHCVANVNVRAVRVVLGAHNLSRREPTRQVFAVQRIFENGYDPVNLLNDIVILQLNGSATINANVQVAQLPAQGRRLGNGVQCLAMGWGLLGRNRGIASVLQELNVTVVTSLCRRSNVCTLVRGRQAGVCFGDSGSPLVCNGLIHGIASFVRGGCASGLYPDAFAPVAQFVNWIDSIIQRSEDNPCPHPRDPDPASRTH
Protocol: as §1
Measurement of inhibitory activity of compounds toward human neutrophil elastase (HNE).
(§5) The inhibitory activity assay is performed at 37°C in 0,01M HEPES, 0,5M NaCl, 0,03% Triton X-100 buffer, pH 7,5, within 10 min after initial pre-incubation of the enzyme with inhibitor tested at 37°C for 10 min. The enzyme concentration is 0,0025U/ml. Substrate used Me-Suc-Ala-Ala-Pro-Val-AFC at 25µM. Measurement is taken at an excitation wavelength of 400nm and 505nm emission.
as §3

cathepsin G (CatG) = molecular target: T4, cathepsin G (CatG) (Homo sapiens, UniProt P08311); assay: Inhibitory activity toward cathepsin G, fluorogenic substrate, microplate reader; settings: read-out: Cat G IC50; 10 min pre-incubation at 37°C, pH 7,5, MCA-Phe-Val-Thr-Gnf-Ser-Trp-Anb-NH2 2.5µM; NI = brak inhibicji (no inhibition)
T4 sequence (P08311 21-244): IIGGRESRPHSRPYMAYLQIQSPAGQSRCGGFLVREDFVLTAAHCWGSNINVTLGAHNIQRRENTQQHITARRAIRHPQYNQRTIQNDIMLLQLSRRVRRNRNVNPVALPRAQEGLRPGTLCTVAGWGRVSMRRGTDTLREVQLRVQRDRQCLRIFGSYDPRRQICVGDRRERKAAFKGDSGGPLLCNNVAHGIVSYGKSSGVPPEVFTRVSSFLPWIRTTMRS
Protocol: as §1
Measurement of inhibitory activity of compounds toward cathepsin G (CatG).
as §2, with “100nM.” for “17nM.”, “MCA-Phe-Val-Thr-Gnf-Ser-Trp-Anb-NH2” for “Abz-Tyr-Tyr-Abu-Anb-NH2”, “2.5µM.” for “30µM.”
as §3

chymotrypsin (ChTry) = chymotrypsin (ChTry) (Bos taurus, UniProt P00766); assay: Inhibitory activity toward chymotrypsin, fluorogenic substrate, microplate reader; settings: 10 min pre-incubation at 37°C, pH 7,5, Suc-Ala-Ala-Pro-Phe-AMC 5µM; NI = brak inhibicji (no inhibition)
Protocol: as §1
Measurement of inhibitory activity of compounds toward […] (ChyTry).
as §2, with “HEPES,” for “Tric-HCl,”, “3nM.” for “17nM.”, “Suc-Ala-Ala-Pro-Phe-AMC” for “Abz-Tyr-Tyr-Abu-Anb-NH2”, “5µM.” for “30µM.”, “350nm” for “325nm”, “460nm” for “400nm”
as §3

trypsin (Try) = molecular target: T5, trypsin (Try) (Bos taurus, UniProt P00760); assay: Inhibitory activity toward trypsin, fluorogenic substrate, microplate reader; settings: 10 min pre-incubation at 37°C, pH 7,5, Cbz-Arg-AFC 100µM; NI = brak inhibicji (no inhibition)
T5 sequence (P00760 24-246): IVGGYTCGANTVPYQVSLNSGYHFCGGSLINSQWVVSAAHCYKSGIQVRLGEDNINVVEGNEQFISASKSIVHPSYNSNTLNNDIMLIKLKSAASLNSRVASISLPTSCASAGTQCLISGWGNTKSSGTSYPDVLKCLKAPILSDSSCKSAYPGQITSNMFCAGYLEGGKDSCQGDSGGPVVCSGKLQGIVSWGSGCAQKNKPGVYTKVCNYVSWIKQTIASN
Protocol: as §1
Measurement of inhibitory activity of compounds toward trypsin (Try).
as §5, with “0,1M” for “0,01M”, “25nM.” for “0,0025U/ml.”, “Cbz-Arg-AFC” for “Me-Suc-Ala-Ala-Pro-Val-AFC”, “100µM.” for “25µM.”
as §3

T2 sequence (P00780 106-379): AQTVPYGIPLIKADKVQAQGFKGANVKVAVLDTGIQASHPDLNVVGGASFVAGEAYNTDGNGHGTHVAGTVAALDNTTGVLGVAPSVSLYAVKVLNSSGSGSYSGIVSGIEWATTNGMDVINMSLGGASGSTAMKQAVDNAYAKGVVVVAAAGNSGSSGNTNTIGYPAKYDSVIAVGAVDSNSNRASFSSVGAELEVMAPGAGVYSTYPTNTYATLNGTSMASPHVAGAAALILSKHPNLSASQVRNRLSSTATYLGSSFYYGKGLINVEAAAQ
porcine pancreatic elastase (PPE), sequence (P00772 27-266): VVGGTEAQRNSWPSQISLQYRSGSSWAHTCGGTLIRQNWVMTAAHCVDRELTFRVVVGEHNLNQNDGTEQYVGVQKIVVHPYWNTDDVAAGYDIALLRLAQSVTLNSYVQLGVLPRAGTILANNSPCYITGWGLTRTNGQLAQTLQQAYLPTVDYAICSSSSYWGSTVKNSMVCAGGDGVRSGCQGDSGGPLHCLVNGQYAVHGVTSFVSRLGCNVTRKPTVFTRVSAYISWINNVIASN

CC(C)CC(NC(=O)C1CCCN1C(=O)C(NC(=O)CCCCC1SCC2NC(=O)NC21)C(C)C)P(=O)(Oc1ccccc1)Oc1ccccc1 (stereo not shown) [Compound 7, diphenyl (3-methyl-1-(1-(3-methyl-2-(5-(2-oxohexahydro-1H-thieno[3,4-d]imidazol-4-yl)pentanamido)butanoyl)pyrrolidine-2-carboxamido)butyl)phosphonate]
IC50 (proteinase 3 (PR3); read-out: PR3 IC50, 10 min pre-incubation at 37°C, pH 7,5, Abz-Tyr-Tyr-Abu-Anb-NH2 30µM, NI = brak inhibicji (no inhibition)): > 5000 nM
IC50 (subtilisin (Sub) [1]): 76.5 ± 1.65 nM
IC50 ([2]; read-out: PPE IC50, 10 min pre-incubation at 37°C, pH 8,5, Me-Suc-Ala-Ala-Pro-Val-AMC 100µM, NI = brak inhibicji (no inhibition)): > 5000 nM
kinact/KI (subtilisin (Sub) [3]): 15000 M⁻¹ s⁻¹
IC50 ([4]; read-out: HNE IC50, 10 min pre-incubation at 37°C, pH 7,5, Me-Suc-Ala-Ala-Pro-Val-AFC 25µM, NI = brak inhibicji (no inhibition)): > 5000 nM
IC50 (cathepsin G (CatG)): > 5000 nM

CCC(NC(=O)C1CCCN1C(=O)C(NC(=O)CCCCC1SCC2NC(=O)NC21)C(C)C)P(=O)(Oc1ccc(SC)cc1)Oc1ccc(SC)cc1 (stereo not shown) [Compound 13, bis(4-(methylthio)phenyl) (1-(1-(3-methyl-2-(5-(2-oxohexahydro-1H-thieno[3,4-d]imidazol-4-yl)pentanamido)butanoyl)pyrrolidine-2-carboxamido)propyl)phosphonate]
IC50 (proteinase 3 (PR3)): 227 ± 17 nM
PR3 Kobs/[I] (proteinase 3 (PR3); 10 min pre-incubation at 37°C, pH 7,5, Abz-Tyr-Tyr-Abu-Anb-NH2 30µM, NI = brak inhibicji (no inhibition)): 1.0*10^4 M^-1S^-1
IC50 (subtilisin (Sub) [1]): 147 ± 4 nM
Sub Kobs/[I] (subtilisin (Sub) [1]; 10 min pre-incubation at 37°C, pH 7,5, Me-Suc-Ala-Ala-Pro-Phe-AMC 5µM, NI = brak inhibicji (no inhibition)): 7.8*10^3 M^-1S^-1
IC50 [2]: 23.5 ± 1.95 nM
IC50 [4]: 2.75 ± 0.05 nM
HNE Kobs/[I] ([4]; 10 min pre-incubation at 37°C, pH 7,5, Me-Suc-Ala-Ala-Pro-Val-AFC 25µM, NI = brak inhibicji (no inhibition)): 4.2*10^5 M^-1S^-1
IC50 (cathepsin G (CatG)): > 5000 nM
ChyTr Kobs/[I] (chymotrypsin (ChTry)): 1.2*10^3 M^-1S^-1
Try Kobs/[I] (trypsin (Try)): 3*10^2 M^-1S^-1
